Reference: patent US20250255867A1 (Kadmon Corporation, LLC, priority 2022, published 2025)

CC(C)NC(=O)COc1cccc(-c2nc(Nc3ccc4[nH]ncc4c3)c3ccccc3n2)c1 [Belumosudil, 2-{3-[4-(1H-indazol-5-ylamino)-2-quinazolinyl]phenoxy}-N-(propan-2-yl) acetamide]
(9.52%): Acute kidney injury: Affected/At Risk (%) (Cohort 3 400 mg QD) | Alanine aminotransferase increased: Affected/At Risk (%) (Cohort 3 400 mg QD) | Blood creatinine increased: Affected/At Risk (%) (Cohort 3 400 mg QD)
5/21: Arthralgia: Affected/At Risk (Cohort 3 400 mg QD)
0: Vertigo: # Events (Cohort 2 200 mg BID) | Weight decreased: # Events (Cohort 2 200 mg BID) | White blood cell count decreased: # Events (Cohort 2 200 mg BID) | Death, No. (Cohort 2 200 mg BID n=16) | Drug-related SAE, No. (Cohort 2 200 mg BID n=16) | Hyperglycemia grade ≥3, No. (Cohort 2 200 mg BID n=16) | Abdominal pain upper: # Events (Cohort 3 400 mg QD) | Acute respiratory distress syndrome: # Events (Cohort 3 400 mg QD) | Adrenal insufficiency: # Events (Cohort 3 400 mg QD) | Anaemia: # Events (Cohort 3 400 mg QD) | Anal incontinence: # Events (Cohort 3 400 mg QD) | Asthenia: # Events (Cohort 3 400 mg QD) | Atelectasis: # Events (Cohort 3 400 mg QD) | Balance disorder: # Events (Cohort 3 400 mg QD) | Basal cell carcinoma: # Events (Cohort 3 400 mg QD) | Benign prostatic hyperplasia: # Events (Cohort 3 400 mg QD) | Blood alkaline phosphatase increased: # Events (Cohort 3 400 mg QD) | Blood chloride decreased: # Events (Cohort 3 400 mg QD) | Blood creatine increased: # Events (Cohort 3 400 mg QD) | Blood creatine phosphokinase increased: # Events (Cohort 3 400 mg QD)
4: Cough all grade, No. (Cohort 2 200 mg BID n=16) | Nausea all grade, No. (Cohort 2 200 mg BID n=16) | Peripheral edema all grade, No. (Cohort 2 200 mg BID n=16)
(12.5%): Urinary tract infection: Affected/At Risk (%) (Cohort 2 200 mg BID) | Vision blurred: Affected/At Risk (%) (Cohort 2 200 mg BID)
2/21: Acute kidney injury: Affected/At Risk (Cohort 3 400 mg QD) | Alanine aminotransferase increased: Affected/At Risk (Cohort 3 400 mg QD) | Blood creatinine increased: Affected/At Risk (Cohort 3 400 mg QD)
2: Urinary retention: # Events (Cohort 2 200 mg BID) | Urinary tract infection: # Events (Cohort 2 200 mg BID) | Vision blurred: # Events (Cohort 2 200 mg BID) | Weight increased: # Events (Cohort 2 200 mg BID) | ALT/AST increased grade ≥3, No. (Cohort 2 200 mg BID n=16) | Dyspnea grade ≥3, No. (Cohort 2 200 mg BID n=16) | Hypertension all grade, No. (Cohort 2 200 mg BID n=16) | Lung infection or pneumonia grade ≥3, No. (Cohort 2 200 mg BID n=16) | Alanine aminotransferase increased: # Events (Cohort 3 400 mg QD) | Blepharitis: # Events (Cohort 3 400 mg QD) | Blood creatinine increased: # Events (Cohort 3 400 mg QD)
10: Grade ≥3 AE, No. (Cohort 2 200 mg BID n=16)
1: Urinary tract pain: # Events (Cohort 2 200 mg BID) | Urine output decreased: # Events (Cohort 2 200 mg BID) | Vascular access complication: # Events (Cohort 2 200 mg BID) | Anemia grade ≥3, No. (Cohort 2 200 mg BID n=16) | Hypoxia grade ≥3, No. (Cohort 2 200 mg BID n=16) | Abdominal distension: # Events (Cohort 3 400 mg QD) | Actinic keratosis: # Events (Cohort 3 400 mg QD) | Aspartate aminotransferase increased: # Events (Cohort 3 400 mg QD) | Back pain: # Events (Cohort 3 400 mg QD) | Blister: # Events (Cohort 3 400 mg QD) | Blood cholesterol increased: # Events (Cohort 3 400 mg QD)
(18.75%): Vomiting: Affected/At Risk (%) (Cohort 2 200 mg BID)
2/16: Urinary tract infection: Affected/At Risk (Cohort 2 200 mg BID) | Vision blurred: Affected/At Risk (Cohort 2 200 mg BID)
3: Vomiting: # Events (Cohort 2 200 mg BID) | Fatigue all grade, No. (Cohort 2 200 mg BID n=16) | Headache all grade, No. (Cohort 2 200 mg BID n=16) | Anxiety: # Events (Cohort 3 400 mg QD)
0/21: Abdominal pain upper: Affected/At Risk (Cohort 3 400 mg QD) | Acute respiratory distress syndrome: Affected/At Risk (Cohort 3 400 mg QD) | Adrenal insufficiency: Affected/At Risk (Cohort 3 400 mg QD) | Anaemia: Affected/At Risk (Cohort 3 400 mg QD) | Anal incontinence: Affected/At Risk (Cohort 3 400 mg QD) | Asthenia: Affected/At Risk (Cohort 3 400 mg QD) | Atelectasis: Affected/At Risk (Cohort 3 400 mg QD) | Balance disorder: Affected/At Risk (Cohort 3 400 mg QD) | Basal cell carcinoma: Affected/At Risk (Cohort 3 400 mg QD) | Benign prostatic hyperplasia: Affected/At Risk (Cohort 3 400 mg QD) | Blood alkaline phosphatase increased: Affected/At Risk (Cohort 3 400 mg QD) | Blood chloride decreased: Affected/At Risk (Cohort 3 400 mg QD) | Blood creatine increased: Affected/At Risk (Cohort 3 400 mg QD) | Blood creatine phosphokinase increased: Affected/At Risk (Cohort 3 400 mg QD)
9: URI all grade, No. (Cohort 2 200 mg BID n=16)
4/21: Abdominal pain: Affected/At Risk (Cohort 3 400 mg QD)
(14.29%): Anxiety: Affected/At Risk (%) (Cohort 3 400 mg QD)
(6.25%): Urinary retention: Affected/At Risk (%) (Cohort 2 200 mg BID) | Urinary tract pain: Affected/At Risk (%) (Cohort 2 200 mg BID) | Urine output decreased: Affected/At Risk (%) (Cohort 2 200 mg BID) | Vascular access complication: Affected/At Risk (%) (Cohort 2 200 mg BID) | Weight increased: Affected/At Risk (%) (Cohort 2 200 mg BID)
6: Dyspnea all grade, No. (Cohort 2 200 mg BID n=16) | SAE, No. (Cohort 2 200 mg BID n=16) | Abdominal pain: # Events (Cohort 3 400 mg QD) | Acute kidney injury: # Events (Cohort 3 400 mg QD) | Arthralgia: # Events (Cohort 3 400 mg QD)
(4.76%): Abdominal distension: Affected/At Risk (%) (Cohort 3 400 mg QD) | Actinic keratosis: Affected/At Risk (%) (Cohort 3 400 mg QD) | Aspartate aminotransferase increased: Affected/At Risk (%) (Cohort 3 400 mg QD) | Back pain: Affected/At Risk (%) (Cohort 3 400 mg QD) | Blepharitis: Affected/At Risk (%) (Cohort 3 400 mg QD) | Blister: Affected/At Risk (%) (Cohort 3 400 mg QD) | Blood cholesterol increased: Affected/At Risk (%) (Cohort 3 400 mg QD)
3/16: Vomiting: Affected/At Risk (Cohort 2 200 mg BID)
3/21: Anxiety: Affected/At Risk (Cohort 3 400 mg QD)
(19.05%): Abdominal pain: Affected/At Risk (%) (Cohort 3 400 mg QD)
1/21: Abdominal distension: Affected/At Risk (Cohort 3 400 mg QD) | Actinic keratosis: Affected/At Risk (Cohort 3 400 mg QD) | Aspartate aminotransferase increased: Affected/At Risk (Cohort 3 400 mg QD) | Back pain: Affected/At Risk (Cohort 3 400 mg QD) | Blepharitis: Affected/At Risk (Cohort 3 400 mg QD) | Blister: Affected/At Risk (Cohort 3 400 mg QD) | Blood cholesterol increased: Affected/At Risk (Cohort 3 400 mg QD)
71%: Patients with relative dose intensity >95% (Cohort 3)
0/16: Vertigo: Affected/At Risk (Cohort 2 200 mg BID) | Weight decreased: Affected/At Risk (Cohort 2 200 mg BID) | White blood cell count decreased: Affected/At Risk (Cohort 2 200 mg BID)
5: ALT/AST increased all grade, No. (Cohort 2 200 mg BID n=16) | Diarrhea all grade, No. (Cohort 2 200 mg BID n=16)
8: Drug-related AE, No. (Cohort 2 200 mg BID n=16)
(23.81%): Arthralgia: Affected/At Risk (%) (Cohort 3 400 mg QD)
(0%): Vertigo: Affected/At Risk (%) (Cohort 2 200 mg BID) | Weight decreased: Affected/At Risk (%) (Cohort 2 200 mg BID) | White blood cell count decreased: Affected/At Risk (%) (Cohort 2 200 mg BID) | Abdominal pain upper: Affected/At Risk (%) (Cohort 3 400 mg QD) | Acute respiratory distress syndrome: Affected/At Risk (%) (Cohort 3 400 mg QD) | Adrenal insufficiency: Affected/At Risk (%) (Cohort 3 400 mg QD) | Anaemia: Affected/At Risk (%) (Cohort 3 400 mg QD) | Anal incontinence: Affected/At Risk (%) (Cohort 3 400 mg QD) | Asthenia: Affected/At Risk (%) (Cohort 3 400 mg QD) | Atelectasis: Affected/At Risk (%) (Cohort 3 400 mg QD) | Balance disorder: Affected/At Risk (%) (Cohort 3 400 mg QD) | Basal cell carcinoma: Affected/At Risk (%) (Cohort 3 400 mg QD) | Benign prostatic hyperplasia: Affected/At Risk (%) (Cohort 3 400 mg QD) | Blood alkaline phosphatase increased: Affected/At Risk (%) (Cohort 3 400 mg QD) | Blood chloride decreased: Affected/At Risk (%) (Cohort 3 400 mg QD) | Blood creatine increased: Affected/At Risk (%) (Cohort 3 400 mg QD) | Blood creatine phosphokinase increased: Affected/At Risk (%) (Cohort 3 400 mg QD)
16: Any AE, No. of patients (Cohort 2 200 mg BID n=16)
1/16: Urinary retention: Affected/At Risk (Cohort 2 200 mg BID) | Urinary tract pain: Affected/At Risk (Cohort 2 200 mg BID) | Urine output decreased: Affected/At Risk (Cohort 2 200 mg BID) | Vascular access complication: Affected/At Risk (Cohort 2 200 mg BID) | Weight increased: Affected/At Risk (Cohort 2 200 mg BID)
